Assays:
[1] = system: AOI cancer tissue; test: cancer therapy sensitivity test by MTT assay, AOI on NHBE, lung-derived fibroblasts (NHLF) as feeder layer; assay type: cell-based, human; conditions: 10 μg/ml for 72 hours
[2] = system: prostatic cancer-derived DU-145 cancer cells; test: cancer therapy sensitivity test by MTT assay, DU-145 on PrEC in stratified structure, SuSa feeder layer (Embodiment 3); assay type: cell-based, human; conditions: 1/10-fold culture medium, 10 μg/ml for 72 hours
[3] = system: regenerated normal bronchial epithelial tissue (NHBE); test: cancer therapy sensitivity test by MTT assay, regenerated normal tissue, SuSa feeder layer (Embodiment 3); conditions: 10 μg/ml for 72 hours
Protocol: (§1) The cancer therapy sensitivity test was conducted in comparison with a conventional two-dimensional culture MTT assay system.
(§2) In these figures, a column of the cancer name (e.g: AOI) corresponds to the sensitivity of the cancer cells in the two-dimensional culture.
(§3) Also in these figures, the brackets the MTT assay correspond, from the left, the normal epithelial cell name employed (this time a bronchial epithelium (NHBE) or prostatic epithelium (PrEC)), the culture medium (1/10-fold or 1-fold), the fibroblast name employed as a feeder layer (human skin-derived (SUSA) or lung-derived (NHLF)). […] The drug treatments with all of three drugs employed here were conducted at 10 μg/ml for 72 hours.

[4] = system: regenerated normal bronchial epithelial tissue (NHBE); test: cancer therapy sensitivity test by MTT assay, regenerated normal tissue, lung-derived fibroblasts (NHLF) as feeder layer; assay type: cell-based, human; conditions: 10 μg/ml for 72 hours
Protocol: as §1, §2, §3

[5] = system: AOI lung cancer cells; test: cancer therapy sensitivity test by MTT assay, AOI on NHBE in stratified structure, SuSa feeder layer (Embodiment 3); assay type: cell-based, human; conditions: 10 μg/ml for 72 hours
Protocol: as §1, §2, §3

[6] = system: ACHN-L4 cells; test: cancer therapy sensitivity test by MTT assay on regenerated tissue (Embodiment 2), renal cancer; assay type: cell-based, human; conditions: novel sensitivity test, ACHN-L4 on RPTEC/NHMC regenerated tissue
[7] = system: AOI tumor; test: AOI tumor transplanted to a nude mouse; assay type: in vivo
[8] = system: hepatoma cells Alex; test: cancer therapy sensitivity test by MTT assay on regenerated tissue (Embodiment 2), hepatoma; assay type: cell-based, human; conditions: combination of irradiation with cisplatin; Alex on Nheps regenerated tissue
[9] = 1-fold culture medium, lung-derived fibroblast feeder
[10] = 1/10-fold culture medium, lung-derived fibroblasts as feeder

Structure (SMILES)	sensitivity of the AOI cancer cell tissue in 3-dimensional culture [1, 9]	sensitivity of tissue in MTT assay [1, 10]	sensitivity of DU-145 cancer cells compared with the AOI cells [2]	proliferation of regenerated normal tissue ([3]; 1-fold culture medium, 5FU alone)	growth of the regenerated normal bronchial epithelial tissue after removing co-cultured AOI cancer tissue ([3]; 1/10-fold culture medium)	sensitivity of the normal tissue in 3-dimensional culture [4, 9]	sensitivity of tissue in MTT assay [4, 10]	difference in the sensitivity of the AOI cancer tissue by the difference in the fibroblasts ([1]; 1-fold culture medium, lung-derived vs skin-derived fibroblast feeder)	tendency of 3-dimensional tissue to be more resistant than two-dimensional culture ([5]; degree influenced by growth factor level in medium)	sensitivity of cancer cells in the MTT assay [6]	body weight of the nude mouse reduced to (fraction) ([7]; cisplatin at 10 mg/kg)	tumor growth ([7]; cisplatin at 10 mg/kg, nude mouse)	MTT assay result compared with the HDRA method [8]	difference in sensitivity between the skin-derived and lung-derived fibroblasts ([1]; 1/10-fold culture medium)	resistance of 3-dimensional AOI cancer tissue coexisting with the normal tissue compared with 2-dimensionally cultured AOI cells ([5]; 1/10-level medium, drug alone)	sensitivity of AOI tumor to mitomycin compared with cisplatin ([7]; nude mouse-transplanted tumor)	resistance of 3-dimensionally growing normal tissue ([3]; 1-fold level culture medium, drug alone)	resistance of 3-dimensional normal tissue coexisting with the cancer tissue compared with the normal tissue alone ([3]; 1/10-level medium, drug alone)
O=c1[nH]cc(F)c(=O)[nH]1 [5FU]	reduced sensitivity	no tissue exhibited any sensitivity	highly sensitive	proliferation was rather promoted	tendency of the promotion of the growth	reduced sensitivity	no tissue exhibited any sensitivity	–	–	–	–	–	–	–	–	–	–	–
N.N.[Cl][Pt][Cl] [cisplatin]	–	–	rather resistant	–	–	–	–	small	tendency described above was observed also	highly sensitive	about ⅔	retarded growth was observed only for several days	exhibited the difference in the effect	–	–	–	–	–
CO[C@@]12[C@H](COC(N)=O)C3=C(C(=O)C(C)=C(N)C3=O)N1C[C@@H]1N[C@@H]12 [MMC, mitomycin]	–	–	–	–	–	–	–	–	–	–	–	–	–	no substantial difference	more resistant	rather more sensitive	rather more resistant	rather more resistant

From patent US9695396B2, “Regenerated tissue comprising a stratified structure of epithelial cells” (JAPAN SCIENCE AND TECHNOLOGY CORPORATION, priority 2001, dated 2017)
